The record followed here is patent US5981573A, “N,N-disubstituted amic acid derivatives” (Banyu Pharmaceutical Co., Ltd., priority 1996, dated 1999).

For experiment [1], the target named is T1, protein-farnesyl transferase (PFT) (Rattus norvegicus, UniProt Q02293+Q04631).
T1 construct: PFT derived from rat brain (Q-sepharose fraction); from tissue; host or cells: rat brain (soluble fraction, 30-50% ammonium sulfate cut, Q-Sepharose fraction)
Put plainly: Inhibitory activities against protein-farnesyl transferase (PFT). The class given is biochemical. The conditions noted are these: PFT derived from rat brain; prenyl acceptor H-ras protein or biotin-added Lys-Thr-Ser-Cys-Val-Ile-Met; 37° C., 20 minutes; read-out: 50% inhibitory concentrations (IC50) against PFT activities. The protocol: Pharmacological Test 1 (Inhibitory activities against protein-farnesyl transferase)
PFT was separated in such a manner that a soluble fraction of rat s brain was fractionated by means of 30%-50% saturated ammonium sulfate, further dialyzed and then subjected to column chromatography by Q-sepharose™ (manufactured by Pharmacia) (Reiss et al., Cell, vol. 62, pp. 81-88 (1990)).
(2) Method for measuring PFT activities
Measurement of PFT activities was conducted by using, as a prenyl acceptor, H-ras protein or a peptide corresponding to the C-terminal 7 amino acid residues of K-rasB protein which had biotin added to the N-terminal (biotin-added Lys-Thr-Ser-Cys-Val-Ile-Met) and, as a prenyl donor, [^3 H]-labeled farnesyl pyrophosphate (FPP) (Reiss et al., Methods: A Companion to Methods in Enzymology, vol. 1, No. 3, pp. 241-245 (1990)). […]
The enzymatic reaction product containing H-ras protein as the prenyl acceptor, was analyzed by SDS-PAGE (sodium dodecyl sulfate/polyacrylamide gel electrophoresis). […]
The measurement of PFT activities using H-ras protein as the prenyl receptor, was also analyzed by a rapid separate method. […]

Experiment [2] deals with farnesyl-modification of Ras protein in NIH3T3 cells transformed by activated ras gene. Put plainly: Inhibitory activities against farnesyl-modification of Ras protein in NIH3T3 cells transformed by activated ras gene. The class given is cell-based. The conditions noted are these: Mus musculus, 24 hours, read-out: 50% inhibitory concentrations (IC50) against farnesyl-modification of Ras protein. The protocol:
PHARMACOLOGICAL TEST EXAMPLE 2 (Inhibitory activities against farnesyl-modification of Ras protein)
Using the compounds of the present invention, inhibitory activities against farnesyl-modification of Ras protein in NIH3T3 cells transformed by activated ras gene, were measured.
The NIH3T3 cells transformed by activated ras gene, were seeded on a culture plate and cultured for 3 days. Then, a compound of the present invention in a predetermined concentration was added to the culture. In accordance with the method disclosed in J. Biol. Chem., vol. 268, p. 18415 (1993), the cells were cultured for 24 hours and then taken off from the plate, and the cells were dissolved. After centrifugal separation for 5 minutes under 12000 g, the supernatant was used as a cell extract. The cell extract was subjected to SDS polyacrylamide gel electrophoresis to separate farnesyl-modified Ras protein and non-farnesyl-modified Ras protein. The protein on the gel was transferred onto a nitrocellulose membrane, and an anti-Ras protein antibody was reacted as a probe (primary antibody reaction). An anti-primary antibody, a peroxidase inclusion (secondary antibody), was reacted, and then Ras protein was detected by a chemical fluorescence enhancing kit. The proportion of non-farnesyl-modified Ras protein was quantified by a densitometer and taken as the inhibitory activity. […]

Take `C[C@H]([C@H](Cc1ccc(C(=O)Nc2ccccc2)o1)c1ccc2c(c1)OCO2)N(C/C=C/c1ccccc1)C(=O)C(O)=C(CC(=O)O)C(=O)OC(C)(C)C` [Example 1, 3-(tert-butoxycarbonyl)-4-hydroxy-4-[N-[(1R,2R)-1-methyl-2-(3,4-methylenedioxyphenyl)-3-{5-(phenylcarbamoyl)-2-furyl}propyl]-N-{(E)-3-phenyl-2-propenyl}carbamoyl]-3-butenoic acid]: the IC50 worked out at 0.74 nM in experiment [1] and 1.3 nM in experiment [2].

Turning to `CCOC(=O)C(CC(=O)O)=C(O)C(=O)N(CC#Cc1ccccc1)[C@H](C)[C@H](Cc1ccc(C(=O)Nc2ccccc2)o1)c1ccc2c(c1)OCO2` (relative stereo) [Example 17, 3-(ethoxycarbonyl)-4-hydroxy-4-[N [(1RS,2RS)-1-methyl-2-(3,4-methylenedioxyphenyl)-3-{5-(phenylcarbamoyl)-2-furyl}propyl]-N-(3-phenyl-2-propynyl)carbamoyl]-3-butenoic acid], the figures for the IC50 in experiment [1] and in experiment [2] were 1.7 nM and 4.3 nM, respectively.
